# Experimental data as given in PubChem BioAssay (NCI).
#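 Following 48 hours of exposure in 96-well plates, responses at five concentrations were used to interpolate endpoints linearly. GI50 marks 50% less growth. TGI marks complete inhibition of growth.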
# Columns and labels:
# Assay in all cases: NCI tumour cell line growth inhibition, 48 h
# 786-0 renal = system: 786-0 renal
# A498 renal = system: A498 renal
# A549 NSCLC = system: A549 NSCLC
# ACHN renal = system: ACHN renal
# BT-549 breast = system: BT-549 breast
# CAKI-1 renal = system: CAKI-1 renal
# CCRF-CEM leukemia = system: CCRF-CEM leukemia
# COLO 205 colon = system: COLO 205 colon
# DU-145 prostate = system: DU-145 prostate
# EKVX NSCLC = system: EKVX NSCLC
# HCC-2998 colon = system: HCC-2998 colon
# HCT-116 colon = system: HCT-116 colon
# HCT-15 colon = system: HCT-15 colon
# HL-60(TB) leukemia = system: HL-60(TB) leukemia
# HOP-62 NSCLC = system: HOP-62 NSCLC
# HOP-92 NSCLC = system: HOP-92 NSCLC
# HS 578T breast = system: HS 578T breast
# HT29 colon = system: HT29 colon
# IGROV1 ovarian = system: IGROV1 ovarian
# K-562 leukemia = system: K-562 leukemia
# KM12 colon = system: KM12 colon
# LOX IMVI melanoma = system: LOX IMVI melanoma
# M14 melanoma = system: M14 melanoma
# MCF7 breast = system: MCF7 breast
# MDA-MB-231 breast = system: MDA-MB-231 breast
# MDA-MB-435 = system: MDA-MB-435
# MOLT-4 leukemia = system: MOLT-4 leukemia
# NCI-H226 lung = system: NCI-H226 lung
# NCI-H23 lung = system: NCI-H23 lung
# NCI-H460 lung = system: NCI-H460 lung
# NCI-H522 lung = system: NCI-H522 lung
# NCI/ADR-RES ovarian = system: NCI/ADR-RES ovarian
# OVCAR-3 ovarian = system: OVCAR-3 ovarian
# OVCAR-4 ovarian = system: OVCAR-4 ovarian
# OVCAR-5 ovarian = system: OVCAR-5 ovarian
# OVCAR-8 ovarian = system: OVCAR-8 ovarian
# PC-3 prostate = system: PC-3 prostate
# RPMI-8226 leukemia = system: RPMI-8226 leukemia
# RXF 393 renal = system: RXF 393 renal
# SF-268 CNS = system: SF-268 CNS
# SF-295 CNS = system: SF-295 CNS
# SF-539 CNS = system: SF-539 CNS
# SK-MEL-2 melanoma = system: SK-MEL-2 melanoma
# SK-MEL-28 melanoma = system: SK-MEL-28 melanoma
# SK-MEL-5 melanoma = system: SK-MEL-5 melanoma
# SK-OV-3 ovarian = system: SK-OV-3 ovarian
# SN12C renal = system: SN12C renal
# SNB-19 CNS = system: SNB-19 CNS
# SNB-75 CNS = system: SNB-75 CNS
# SR leukemia = system: SR leukemia
# SW-620 colon = system: SW-620 colon
# T-47D breast = system: T-47D breast
# TK-10 renal = system: TK-10 renal
# U251 CNS = system: U251 CNS
# UACC-257 melanoma = system: UACC-257 melanoma
# UACC-62 melanoma = system: UACC-62 melanoma
# UO-31 renal = system: UO-31 renal
# MALME-3M melanoma = system: MALME-3M melanoma
structure (smiles),measurement,setting,value
COc1cc(OC)cc(C2C(C#N)=C(N)Oc3c2ccc2ccc(O)cc32)c1 (stereo not given),GI50,786-0 renal,< 0.0125 µM
same,TGI,786-0 renal,9.23 µM
same,GI50,A498 renal,< 0.01 µM
same,TGI,A498 renal,2.64 µM
same,GI50,A549 NSCLC,< 0.01 µM
same,TGI,A549 NSCLC,9.97 µM
same,GI50,ACHN renal,< 0.01 µM
same,TGI,ACHN renal,6.58 µM
same,GI50,BT-549 breast,< 0.01 µM
same,TGI,BT-549 breast,11.5 µM
same,GI50,CAKI-1 renal,< 0.01 µM
same,TGI,CAKI-1 renal,6.08 µM
same,GI50,CCRF-CEM leukemia,< 0.01 µM
same,TGI,CCRF-CEM leukemia,14 µM
same,GI50,COLO 205 colon,0.155 µM
same,TGI,COLO 205 colon,1.03 µM
same,GI50,DU-145 prostate,< 0.01 µM
same,TGI,DU-145 prostate,3.84 µM
same,GI50,EKVX NSCLC,< 0.01 µM
same,TGI,EKVX NSCLC,6.66 µM
same,GI50,HCC-2998 colon,< 0.0166 µM
same,TGI,HCC-2998 colon,0.53 µM
same,GI50,HCT-116 colon,< 0.01 µM
same,TGI,HCT-116 colon,3.88 µM
same,GI50,HCT-15 colon,< 0.01 µM
same,TGI,HCT-15 colon,1.93 µM
same,GI50,HL-60(TB) leukemia,< 0.01 µM
same,TGI,HL-60(TB) leukemia,< 0.01 µM
same,GI50,HOP-62 NSCLC,< 0.01 µM
same,TGI,HOP-62 NSCLC,5.75 µM
same,GI50,HOP-92 NSCLC,< 0.01 µM
same,TGI,HOP-92 NSCLC,2.95 µM
same,GI50,HS 578T breast,< 0.01 µM
same,TGI,HS 578T breast,9.95 µM
same,GI50,HT29 colon,0.088 µM
same,TGI,HT29 colon,5.83 µM
same,GI50,IGROV1 ovarian,< 0.01 µM
same,TGI,IGROV1 ovarian,6.61 µM
same,GI50,K-562 leukemia,< 0.01 µM
same,TGI,K-562 leukemia,> 31.7 µM
same,GI50,KM12 colon,< 0.01 µM
same,TGI,KM12 colon,1.34 µM
same,GI50,LOX IMVI melanoma,< 0.01 µM
same,TGI,LOX IMVI melanoma,1.63 µM
same,GI50,M14 melanoma,< 0.01 µM
same,TGI,M14 melanoma,5.25 µM
same,GI50,MCF7 breast,< 0.01 µM
same,TGI,MCF7 breast,11.3 µM
same,GI50,MDA-MB-231 breast,< 0.01 µM
same,TGI,MDA-MB-231 breast,5.14 µM
same,GI50,MDA-MB-435,< 0.01 µM
same,TGI,MDA-MB-435,< 0.01 µM
same,GI50,MOLT-4 leukemia,< 0.01 µM
same,TGI,MOLT-4 leukemia,12.8 µM
same,GI50,NCI-H226 lung,< 0.01 µM
same,GI50,NCI-H23 lung,< 0.01 µM
same,TGI,NCI-H23 lung,4.74 µM
same,GI50,NCI-H460 lung,< 0.01 µM
same,TGI,NCI-H460 lung,1.13 µM
same,GI50,NCI-H522 lung,< 0.01 µM
same,GI50,NCI/ADR-RES ovarian,< 0.01 µM
same,GI50,OVCAR-3 ovarian,< 0.01 µM
same,TGI,OVCAR-3 ovarian,< 0.01 µM
same,TGI,OVCAR-4 ovarian,15.6 µM
same,GI50,OVCAR-5 ovarian,0.0521 µM
same,TGI,OVCAR-5 ovarian,12 µM
same,GI50,OVCAR-8 ovarian,< 0.01 µM
same,TGI,OVCAR-8 ovarian,8.29 µM
same,GI50,PC-3 prostate,< 0.01 µM
same,TGI,PC-3 prostate,13.9 µM
same,GI50,RPMI-8226 leukemia,< 0.01 µM
same,TGI,RPMI-8226 leukemia,3.28 µM
same,GI50,RXF 393 renal,< 0.01 µM
same,TGI,RXF 393 renal,4.49 µM
same,GI50,SF-268 CNS,< 0.01 µM
same,TGI,SF-268 CNS,6.87 µM
same,GI50,SF-295 CNS,< 0.01 µM
same,TGI,SF-295 CNS,2.67 µM
same,GI50,SF-539 CNS,< 0.01 µM
same,TGI,SF-539 CNS,< 0.01 µM
same,GI50,SK-MEL-2 melanoma,0.587 µM
same,TGI,SK-MEL-2 melanoma,7.37 µM
same,GI50,SK-MEL-28 melanoma,2.27 µM
same,TGI,SK-MEL-28 melanoma,9.97 µM
same,GI50,SK-MEL-5 melanoma,< 0.01 µM
same,TGI,SK-MEL-5 melanoma,< 0.01 µM
same,GI50,SK-OV-3 ovarian,< 0.01 µM
same,TGI,SK-OV-3 ovarian,11.4 µM
same,GI50,SN12C renal,< 0.01 µM
same,TGI,SN12C renal,5.89 µM
same,GI50,SNB-19 CNS,< 0.01 µM
same,TGI,SNB-19 CNS,11.6 µM
same,GI50,SNB-75 CNS,< 0.01 µM
same,TGI,SNB-75 CNS,6.54 µM
same,GI50,SR leukemia,< 0.01 µM
same,TGI,SR leukemia,27.1 µM
same,GI50,SW-620 colon,< 0.01 µM
same,TGI,SW-620 colon,14.4 µM
same,GI50,T-47D breast,2.29 µM
same,TGI,T-47D breast,22.8 µM
same,GI50,TK-10 renal,3.36 µM
same,TGI,TK-10 renal,19.6 µM
same,GI50,U251 CNS,< 0.01 µM
same,TGI,U251 CNS,1.89 µM
same,GI50,UACC-257 melanoma,2.38 µM
same,TGI,UACC-257 melanoma,32.5 µM
same,GI50,UACC-62 melanoma,1.41 µM
same,TGI,UACC-62 melanoma,4.42 µM
same,GI50,UO-31 renal,< 0.0112 µM
same,TGI,UO-31 renal,6.62 µM
O=c1n(-c2ccccc2)c(=O)n2n1C1C=CC2CCCCCC1,TGI,786-0 renal,> 100 µM
same,TGI,A549 NSCLC,> 100 µM
same,TGI,ACHN renal,> 100 µM
same,TGI,BT-549 breast,> 100 µM
same,TGI,CAKI-1 renal,> 100 µM
same,TGI,CCRF-CEM leukemia,> 100 µM
same,TGI,COLO 205 colon,> 100 µM
same,TGI,DU-145 prostate,> 100 µM
same,TGI,EKVX NSCLC,> 100 µM
same,TGI,HCC-2998 colon,> 100 µM
same,TGI,HCT-116 colon,> 100 µM
same,TGI,HCT-15 colon,> 100 µM
same,TGI,HL-60(TB) leukemia,> 100 µM
same,TGI,HOP-62 NSCLC,> 100 µM
same,TGI,HOP-92 NSCLC,> 100 µM
same,TGI,HS 578T breast,> 100 µM
same,TGI,HT29 colon,> 100 µM
same,TGI,IGROV1 ovarian,> 100 µM
same,TGI,KM12 colon,> 100 µM
same,TGI,LOX IMVI melanoma,> 100 µM
same,TGI,M14 melanoma,> 100 µM
same,TGI,MALME-3M melanoma,> 100 µM
same,TGI,MCF7 breast,> 100 µM
same,TGI,MDA-MB-231 breast,> 100 µM
same,TGI,MDA-MB-435,> 100 µM
same,TGI,MOLT-4 leukemia,> 100 µM
same,TGI,NCI-H226 lung,> 100 µM
same,TGI,NCI-H23 lung,> 100 µM
same,TGI,NCI-H460 lung,> 100 µM
same,TGI,NCI-H522 lung,> 100 µM
same,TGI,NCI/ADR-RES ovarian,> 100 µM
same,TGI,OVCAR-3 ovarian,> 100 µM
same,TGI,OVCAR-4 ovarian,> 100 µM
same,TGI,OVCAR-5 ovarian,> 100 µM
same,TGI,OVCAR-8 ovarian,> 100 µM
same,TGI,PC-3 prostate,> 100 µM
same,TGI,RPMI-8226 leukemia,> 100 µM
same,TGI,SF-268 CNS,> 100 µM
same,TGI,SF-295 CNS,> 100 µM
same,TGI,SF-539 CNS,> 100 µM
same,TGI,SK-MEL-2 melanoma,> 100 µM
same,TGI,SK-MEL-28 melanoma,> 100 µM
same,TGI,SK-MEL-5 melanoma,> 100 µM
same,TGI,SK-OV-3 ovarian,> 100 µM
same,TGI,SN12C renal,> 100 µM
same,TGI,SNB-19 CNS,> 100 µM
same,TGI,SNB-75 CNS,> 100 µM
same,TGI,SR leukemia,> 100 µM
same,TGI,SW-620 colon,> 100 µM
same,TGI,T-47D breast,> 100 µM
same,TGI,TK-10 renal,> 100 µM
same,TGI,U251 CNS,> 100 µM
same,TGI,UACC-257 melanoma,> 100 µM
same,TGI,UACC-62 melanoma,> 100 µM
same,TGI,UO-31 renal,> 100 µM
